Assay results taken from patent US12138236B2, “Compositions comprising N-Acetyl Methyl GABA and related methods” (MBI Distributing, priority 2020, dated 2024).
Values joined by “and” are separate entries in the source; they are usually repeats but may differ in a detail not shown here. Equal entries are not always repeated.

Legend:
[1] = Single human subject's report on overnight sleep after self-administering N-Acetyl Methyl GABA (Example 2); format: in vivo; parameters: key to Sleep Quality / Restfulness/Wakefulness / Mental Clarity/Memory / Mood / Anti-inflammatory Action (decrease in pain): 1: Very Poor; 2: Poor; 3: Fair; 4: Good; 5: Excellent
Experimental: Table 2 reports a human subject's sleep quality, restfulness/wakefulness, mental clarity/memory, mood, and inflammation and pain reduction after 18 overnight sleep periods over the span of 15 weeks (October-January, as shown in Table 2), with 15 of the 18 nights occurring before the first administration of N-Acetyl Methyl GABA to the subject. Table 3 reports the subject's sleep quality and other parameters after self-administering 300 mg of N-Acetyl Methyl GABA before an overnight sleep period, 40 times over the span of 9 weeks (November-January, as shown in Table 3). Data in Tables 2 and 3 are based on a rating of sleep quality and other parameters from 1 to 5, where 1 is Very Poor, 2 is Poor, 3 is Fair, 4 is Good, and 5 is Excellent. Each morning after waking, the subject reported on the sleep quality, restfulness/wakefulness, mental clarity/memory, mood, and inflammation and pain reduction they felt, and/or with regard to sleep quality, used information from a “Sleep Cycle” app on a cell phone (Sleep Cycle, www.sleepcycle.com, Gothenburg, Sweden).
For 14 of the days reported in Table 2, before the first administration of N-Acetyl Methyl GABA, data is from a sleep app on a cell phone device. Other data in Table 2 is from the subject's experience as reported for a given sleep period. The data before first administration of N-Acetyl Methyl GABA provides a baseline of sleep patterns for the subject with no sleep aid. The average sleep quality in the subject before a first administration of N-Acetyl Methyl GABA was 73.8%. The average percentage of sleep quality improved after administration of N-Acetyl Methyl GABA according to this invention, with average sleep quality at 80.4%.

[2] = Administration of N-Acetyl Methyl GABA to other human subjects, subject reports; format: in vivo
Experimental: Subjects report more natural sleep without the morning grogginess associated with many sleep aids. Subjects report they slept all night long without waking. […] Subjects report the mind is clear and the attitude is positive after N-Acetyl Methyl GABA was administered prior to an overnight sleep period. Without being bound by theory, this may be due to anxiolytic effects of N-Acetyl Methyl GABA.

[3] = Daytime study of N-Acetyl Methyl GABA composition without melatonin, 19 subjects (Example 6); format: in vivo, human; details: one value per patient (1-19), over baseline, 2 teaspoons (8 g) orally once daily, 14 days
Experimental: The Purpose of this study was to quantify the effectiveness of N-Acetyl Methyl GABA on FAM MS (Fatigue, Anxiety, Mood, Mind, Stress) and related symptoms and qualities. (Mind refers to mental clarity, memory and focus).
Due to the above-described effects of N-Acetyl Methyl GABA on sleep and relaxation, a sleep quality section was added to see how a “daytime” version of N-Acetyl Methyl GABA (administered without melatonin) assisted with sleep quality for daytime patients. This was also beneficial for patients that prefer not to take melatonin.
Study participants: 19 subjects
7 day pre-study symptomology (no N-Acetyl Methyl GABA taken) to record a baseline of patient symptoms.
14 day study symptomology (taking N-Acetyl Methyl GABA) to record patient symptoms.
Preferred subject would have minimum two of the following symptoms prior to study: FAMMS (Fatigue, Anxiety, Mood, Mind, Stress) (Mind defines mental clarity, memory and focus issues), sleep imbalance, insomnia, daytime energy issues.
Subjects were asked to not use any additional mind/body stress relief or natural supplements other than the N-Acetyl Methyl GABA composition (“GabaSorb® Daytime”) during the 14 day study.
Subjects were asked to take 2 teaspoons of the liquid N-Acetyl Methyl GABA composition (Gabasorb Daytime) daily in the morning or early afternoon if they suffered from two or more symptoms listed in the protocol.
The N-Acetyl Methyl GABA composition described in Table 11 was taken orally by each patient once daily.
Subjects were administered 2 teaspoons (8 g) of the liquid N-Acetyl Methyl GABA composition described above.
Ratings were made each day during the study period (7 days pre-administration, 14-days during N-Acetyl Methyl GABA administration), based on a scale of 1 to 5. Improvements are shown by increased ratings over baseline in qualities such as Stress, Anxiety, Mental Clarity and Memory, Mood, Daytime Energy, and Sleep Quality for each patient in Table 12. Patient gender and age for Table 12 are as follows: Patient 1 (P1)[…], P2[…], P3[…]; P4[…], P5[…], P6[…], P7[…], P8[…], P9[…], P10[…], P11[…], P12[…], P13[…], P14:M/22, P15:F/23, P16:M/50, P17:M/19, P18:F/44, P19:F27.

[4] = average of 40 nights, scale 1 to 5, without: 2.2
[5] = daily rating 1 to 5 after overnight sleep, 300 mg before sleep, one subject
[6] = sum of 40 daily ratings, 300 mg

COC(=O)CCCNC(C)=O [N-Acetyl Methyl GABA]
side effects reported by the subject ([1]; 300 mg before overnight sleep, 40 times over 9 weeks): No side effects
Inflammation/pain improved, percent of average score without ([1]; 2.1/1.7*100%): about 125%
Mental clarity/memory improved, percent of average score without ([1]; 2.2/2.2*100%): 100%
Mood improved, percent of average score without ([1]; 2.5/1.9*100%): about 132%
Sleep quality improved, percent of average score without ([1]; 2.5/2.2*100%): approximately 115%
Restfulness/wakefulness improved, percent of average score without ([1]; 2.6/2*100%): 130%
average sleep quality (percentage) ([1]; after administration, before first administration 73.8%, sleep app on cell phone): 80.4%
morning or mid-afternoon anxiety, subject report ([1]; after waking from the sleep periods): no longer feeling morning or mid-afternoon anxiety
Anti-inflammatory Action (decrease in pain), average score with N-Acetyl Methyl GABA ([1]; average of 40 nights, scale 1 to 5, without: 1.7): 3.8
Mood, average score with N-Acetyl Methyl GABA ([1]; average of 40 nights, scale 1 to 5, without: 1.9): 4.4
Restfulness/Wakefulness, average score with N-Acetyl Methyl GABA ([1]; average of 40 nights, scale 1 to 5, without: 2): 4.6
Mental Clarity/Memory, average score with N-Acetyl Methyl GABA [1, 4]: 4.4
Sleep Quality, average score with N-Acetyl Methyl GABA [1, 4]: 4.7
Anti-inflammatory Action (decrease in pain) [1, 5]: 3 and 4 and 2 and 5
Mental Clarity/Memory [1, 5]: 3 and 4 and 5
Mood [1, 5]: 3 and 4 and 5
Restfulness/Wakefulness [1, 5]: 3 and 4 and 5
Sleep Quality ([1]; daily rating 1 to 5 after overnight sleep, 300 mg self-administered before sleep, one subject): 4 and 5
Anti-inflammatory Action (decrease in pain), Total Score, 40 days [1, 6]: 153
Mental Clarity/Memory, Total Score, 40 days [1, 6]: 177
Mood, Total Score, 40 days [1, 6]: 176
Restfulness/Wakefulness, Total Score, 40 days [1, 6]: 183
Sleep Quality, Total Score, 40 days [1, 6]: 190
sleep quality, subjects' report ([2]; administered prior to a sleep period): improved sleep quality
tolerability in other human subjects ([2]; human, in vivo): well tolerated
Anxiety Reduced (%) [3]: 35% and 32% and 22% and 40% (2×) and 46% and 107% and 71% (2×) and 126% and 57% and 56% (2×) and 63% (3×) and 52% and 95% and 89%
Daytime Energy Improved (%) [3]: 40% and 32% and 88% (2×) and 29% and 57% and 74% and 36% and 42% and 23% and 17% and 22% (2×) and 43% and 20% and 11% and 0% and 33% (2×)
Mental Clarity/Memory Improved (%) [3]: 57% and 55% and 72% and 43% and 100% and 82% and 52% and 56% and 131% and 70% and 59% and 23% and 25% and 33% (2×) and 71% and 16% and 30% and 40%
Mood Improved (%) [3]: 20% and 94% and 39% and 68% and 100% (4×) and 120% and 152% and 88% and 129% and 107% and 85% and 65% and 60% and 69% (2×) and 112%
Sleep Quality Improved (%) [3]: 78% (2×) and 95% and 118% and 150% and 233% and 62% (2×) and 77% and 93% and 57% and 81% and 52% (3×) and 75% and 87% and 79% and 56%
Stress Reduced (%) [3]: 48% and 45% and 36% (2×) and 33% and 72% and 17% and 25% and 40% (3×) and 78% and 69% and 27% and 56% and 85% and 41% and 52% and 55%
